# Reference: US20260274867A1, “PYRIDO[4,3-D]PYRIMIDINE DERIVATIVES AS MUTANT KRAS G12C INHIBITORS FOR THE TREATMENT OF CANCER” (Frontier Medicines Corporation, priority 2023, published 2026)
# Target: T1, KRAS G12C (GMPPNP-loaded, Cys-light, amino acids 1-169) and cRAF Ras-binding domain interaction (Homo sapiens, UniProt P01116, C118S/C51S/C80L/G12C)
# T1 construct: truncated version comprising amino acids 1-169
# Assay: Inhibition of KRAS G12C and cRAF binding (AlphaScreen)
# Conditions: KRAS G12C preloaded with GMPPNP, 2 hours compound incubation, room temperature
# Description: The AlphaScreen technology was used to determine IC50s for compound inhibition of KRAS G12C (present as the Cys-light (C51S, C80L and C118S), truncated version comprising amino acids 1-169) and cRAF interaction. Compounds were diluted in 100% DMSO and each compound concentration was spotted at 200 nl/well onto low volume, white 384 well plates. The KRAS G12C contained a biotin-AviTag and the cRaf, as Ras-binding domain (amino acids 50-131, RBD), was GST-tagged. KRAS G12C was preloaded with the GTP analogue Guanosine 5′-[…] (GMPPNP). The KRAS G12C was diluted in 25 mM Hepes, pH 7.4, 150 mM NaCl, 5 mM MgCl2, 0.01% TritonX-100 and 10 μM GMPPNP and added at 10 ul/well to compound-spotted plates resulting in a DMSO concentration of 2%. Plates were incubated for 2 hours. A mixture of RBD and the AlphaScreen streptavidin donor and glutathione acceptor beads diluted in 25 mM Hepes, pH 7.4, 150 mM NaCl, 5 mM MgCl2, 0.01% TritonX-100 and 2% DMSO was then added at 10 ul/well and incubated for 60-90 minutes before the samples were read for emission at 570 nm after excitation of the donor beads at 680 nm. All incubations were performed at room temperature. The final top compound concentration was 50 μM with 1:3 titrations for 10-point dose response curves. Final assay conditions were 0.5 nM KRAS G12C, 0.75 nM RBD and 5 μg/ml each of AlphaScreen donor and acceptor beads. IC50s were determined using nonlinear regression fit of [inhibitor] vs. response (4 parameters).
# A counter assay was also set up to rule out inhibitors of the AlphaScreen technology itself. Compound plates were incubated for 2 hours as above with buffer only. The AlphaScreen beads were added as above except biotin-AviTag-GST was substituted for the RBD. Samples were read and analyzed as above.
# T1 sequence (P01116 1-169 isoform P01116-2 G12C/C51S/C80L/C118S): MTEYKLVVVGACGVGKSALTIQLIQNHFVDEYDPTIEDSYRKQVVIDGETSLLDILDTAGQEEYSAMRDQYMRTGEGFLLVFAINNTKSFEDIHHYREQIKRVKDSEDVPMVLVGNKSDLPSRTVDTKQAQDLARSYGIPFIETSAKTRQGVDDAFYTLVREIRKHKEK
row,Structure (SMILES),IC50
1,Cc1nccc(/C=C(\F)C(=O)N2CC[C@H](O)[C@@H](N(C)c3nc(OC[C@@]45CCCN4C[C@H](F)C5)nc4c(F)c(-c5cccc6cccc(Cl)c56)ncc34)C2)n1 [Compound 36],0.1 to 0.5 µM
2,N#CC[C@H]1CN(c2nc(OC[C@@]34CCCN3C[C@H](F)C4)nc3c(F)c(-c4cccc5ccc(F)c(Cl)c45)ncc23)CCN1C(=O)/C(F)=C\c1ccnc(C2CC2)n1 [Compound 7],0.01 to 0.1 µM
3,Cc1nccc(/C=C(\F)C(=O)N2CCN(c3nc(OC[C@@]45CCCN4C[C@H](F)C5)nc4c(F)c(-c5cccc6c(C)c(F)ccc56)ncc34)C[C@@H]2CC#N)n1 [Compound 23],0.01 to 0.1 µM
4,Cc1cc(/C=C(\F)C(=O)N2CCN(c3nc(OC[C@@]45CCCN4C[C@H](F)C5)nc4c(F)c(-c5cccc6ccc(F)c(C)c56)ncc34)C[C@@H]2CC#N)nc(C)n1 [Compound 34],< 0.01 µM
5,Cc1cc(/C=C(\F)C(=O)N2CC[C@@H](N(C)c3nc(N4CC(N(C)C)C4)nc4c(F)c(-c5cccc6ccc(F)c(F)c56)ncc34)C2)nc(C)n1 [Compound 53],0.01 to 0.1 µM
6,"C#Cc1c(F)ccc2cccc(-c3ncc4c(N5CCN(C(=O)/C(F)=C/c6cc(C)nc(C)n6)[C@@H](CC#N)C5)nc(OC)nc4c3F)c12 [Compound 49, (S,Z)-2-(1-(3-(2,6-dimethylpyrimidin-4-yl)-2-fluoroacryloyl)-4-(7-(8-ethynyl-7-fluoronaphthalen-1-yl)-8-fluoro-2-methoxypyrido[4,3-d]pyrimidin-4-yl)piperazin-2-yl)acetonitrile]",0.1 to 0.5 µM
7,Cc1nccc(/C=C(\F)C(=O)N2CCN(c3nc(OC[C@@]45CCCN4C[C@H](F)C5)nc4c(F)c(-c5cccc6cccc(Cl)c56)ncc34)C[C@@H]2CC#N)n1 [Compound 18],< 0.01 µM
8,Cc1cc(/C=C(\F)C(=O)N2CC[C@@H](N(C)c3nc(OC[C@@H]4CCCN4C)nc4c(F)c(-c5cccc(Cl)c5C5CC5)ncc34)C2)nc(C)n1 [Compound 50],0.01 to 0.1 µM
9,"COc1nc(N2CCN(C(=O)/C(F)=C/c3cc(C)nc(C)n3)[C@@H](CC#N)C2)c2cnc(-c3cccc4ccc(F)c(Cl)c34)c(F)c2n1 [Compound 54, (S,Z)-2-(4-(7-(8-chloro-7-fluoronaphthalen-1-yl)-8-fluoro-2-methoxypyrido[4,3-d]pyrimidin-4-yl)-1-(3-(2,6-dimethylpyrimidin-4-yl)-2-fluoroacryloyl)piperazin-2-yl)acetonitrile]",≥ 0.5 µM
10,N#CC[C@H]1CN(c2nc(OC[C@@]34CCCN3C[C@H](F)C4)nc3c(F)c(-c4cccc5ccc(F)c(F)c45)ncc23)CCN1C(=O)/C(F)=C\c1ccnc(C2CC2)n1 [Compound 8],0.01 to 0.1 µM
11,"Cc1cc(/C=C(\F)C(=O)N2CC[C@@H](N(C)c3nc(OC[C@@]45CCCN4C[C@H](F)C5)nc4c(F)c(-c5cccc6ccc(F)c(F)c56)ncc34)C2)nc(C)n1 [Compound 41, (Z)-1-((R)-3-((7-(7,8-difluoronaphthalen-1-yl)-8-fluoro-2-(((2R,7aS)-2-fluorotetrahydro-1H-pyrrolizin-7a(5H)-yl)methoxy)pyrido[4,3-d]pyrimidin-4-yl)(methyl)amino)pyrrolidin-1-yl)-3-(2,6-dimethylpyrimidin-4-yl)-2-fluoroprop-2-en-1-one]",< 0.01 µM
12,"C#Cc1c(F)ccc2cccc(-c3ncc4c(N5CCN(C(=O)/C(F)=C/c6cc(C)nc(C)n6)[C@@H](CC#N)C5)nc(OC[C@@]56CCCN5C[C@H](F)C6)nc4c3F)c12 [Compound 29, 2-((S)-1-((Z)-3-(2,6-dimethylpyrimidin-4-yl)-2-fluoroacryloyl)-4-(7-(8-ethynyl-7-fluoronaphthalen-1-yl)-8-fluoro-2-(((2R,7aS)-2-fluorotetrahydro-1H-pyrrolizin-7a(5H)-yl)methoxy)pyrido[4,3-d]pyrimidin-4-yl)piperazin-2-yl)acetonitrile]",< 0.01 µM
13,Cc1cc(/C=C(\F)C(=O)N2CC[C@@H](N(C)c3nc(OC[C@@H]4CCCN4C)nc4c(F)c(-c5cccc6ccc(F)c(F)c56)ncc34)C2)nc(C)n1 [Compound 52],< 0.01 µM
14,Cc1cc(/C=C(\F)C(=O)N2CCN(c3nc(OC[C@@]45CCCN4C[C@H](F)C5)nc4c(F)c(-c5cccc6ccc(F)c(F)c56)ncc34)C[C@@H]2CC#N)nc(C)n1 [Compound 27],< 0.01 µM
15,"C#Cc1c(F)ccc2cccc(-c3ncc4c(N(C)[C@@H]5CCN(C(=O)/C(F)=C/c6cc(C)nc(C)n6)C5)nc(OC[C@@]56CCCN5C[C@H](F)C6)nc4c3F)c12 [Compound 44, (Z)-3-(2,6-dimethylpyrimidin-4-yl)-1-((R)-3-((7-(8-ethynyl-7-fluoronaphthalen-1-yl)-8-fluoro-2-(((2R,7aS)-2-fluorotetrahydro-1H-pyrrolizin-7a(5H)-yl)methoxy)pyrido[4,3-d]pyrimidin-4-yl)(methyl)amino)pyrrolidin-1-yl)-2-fluoroprop-2-en-1-one]",< 0.01 µM
16,N#CC[C@H]1CN(c2nc(OC[C@@]34CCCN3C[C@H](F)C4)nc3c(F)c(-c4cccc5ccc(F)c(Cl)c45)ncc23)CCN1C(=O)/C(F)=C/CN1[C@@H]2CC[C@H]1COC2 [Compound 31],≥ 0.5 µM
17,C#Cc1c(F)ccc2cccc(-c3ncc4c(N(C)[C@@H]5CCN(C(=O)/C(F)=C/c6ccnc(C)n6)C5)nc(OC[C@@]56CCCN5C[C@H](F)C6)nc4c3F)c12 [Compound 42],< 0.01 µM
18,"Cc1nccc(/C=C(\F)C(=O)N2CC[C@@H](N(C)c3nc(OC[C@@]45CCCN4C[C@H](F)C5)nc4c(F)c(-c5cccc6cccc(Cl)c56)ncc34)C2)n1 [Compound 37, (Z)-1-((R)-3-((7-(8-chloronaphthalen-1-yl)-8-fluoro-2-(((2R,7aS)-2-fluorotetrahydro-1H-pyrrolizin-7a(5H)-yl)methoxy)pyrido[4,3-d]pyrimidin-4-yl)(methyl)amino)pyrrolidin-1-yl)-2-fluoro-3-(2-methylpyrimidin-4-yl)prop-2-en-1-one]",< 0.01 µM
19,Cc1cc(/C=C(\F)C(=O)N2CC[C@@H](N(C)c3nc(N4CC(N(C)C)C4)nc4c(F)c(-c5cccc(Cl)c5C5CC5)ncc34)C2)nc(C)n1 [Compound 51],0.1 to 0.5 µM
20,"Cc1cc(/C=C(\F)C(=O)N2CCN(c3nc(OC[C@@]45CCCN4C[C@H](F)C5)nc4c(F)c(-c5cccc(Cl)c5C5CC5)ncc34)C[C@@H]2CC#N)nc(C)n1 [Compound 32, 2-((S)-4-(7-(3-chloro-2-cyclopropylphenyl)-8-fluoro-2-(((2R,7aS)-2-fluorotetrahydro-1H-pyrrolizin-7a(5H)-yl)methoxy)pyrido[4,3-d]pyrimidin-4-yl)-1-((Z)-3-(2,6-dimethylpyrimidin-4-yl)-2-fluoroacryloyl)piperazin-2-yl)acetonitrile]",< 0.01 µM
21,Cc1cc(/C=C(\F)C(=O)N2CCN(c3nc(OC[C@@]45CCCN4C[C@H](F)C5)nc4c(F)c(-c5cccc6cccc(F)c56)ncc34)C[C@@H]2CC#N)nc(C)n1 [Compound 19],< 0.01 µM
22,N#CC[C@H]1CN(c2nc(OC[C@@]34CCCN3C[C@H](F)C4)nc3c(F)c(-c4cccc5cccc(Cl)c45)ncc23)CCN1C(=O)/C(F)=C/c1ccnc(C2CC2)n1 [Compound 6],< 0.01 µM
23,Cc1nccc(/C=C(\F)C(=O)N2CC(CN(C)c3nc(OC[C@@]45CCCN4C[C@H](F)C5)nc4c(F)c(-c5cccc6cccc(Cl)c56)ncc34)C2)n1 [Compound 40],< 0.01 µM
24,Cc1cc(/C=C(\F)C(=O)N2CCN(c3nc(OC[C@@]45CCCN4C[C@H](F)C5)nc4c(F)c(-c5cccc6ccc(F)c(Cl)c56)ncc34)C[C@@H]2CC#N)nc(C)n1 [Compound 35],< 0.01 µM
25,Cc1nccc(/C=C(\F)C(=O)N2CCN(c3nc(OC[C@@]45CCCN4C[C@H](F)C5)nc4c(F)c(-c5cccc(Cl)c5C5CC5)ncc34)C[C@@H]2CC#N)n1 [Compound 20],< 0.01 µM
26,Cc1nccc(/C=C(\F)C(=O)N2CCN(c3nc(OC[C@@]45CCCN4C[C@H](F)C5)nc4c(F)c(-c5cccc6cccc(F)c56)ncc34)C[C@@H]2CC#N)n1 [Compound 33],< 0.01 µM
27,Cc1nccc(/C=C(\F)C(=O)N2CCN(c3nc(OC[C@@]45CCCN4C[C@H](F)C5)nc4c(F)c(-c5cccc6ccc(F)c(C)c56)ncc34)C[C@@H]2CC#N)n1 [Compound 22],< 0.01 µM
28,CN1CCC1/C=C(/F)C(=O)N1CCN(c2nc(OC[C@@]34CCCN3C[C@H](F)C4)nc3c(F)c(-c4cccc5ccc(F)c(Cl)c45)ncc23)C[C@@H]1CC#N (some centres unmarked) [Compound 17],≥ 0.5 µM
29,Cc1cc(/C=C(\F)C(=O)N2CCN(c3nc(OC[C@@]45CCCN4C[C@H](F)C5)nc4c(F)c(-c5cccc6cccc(Cl)c56)ncc34)C[C@@H]2CC#N)nc(C)n1 [Compound 26],< 0.01 µM
